Source: ChEMBL document CHEMBL5365434, “Cyclic Diguanylate G-Quadruplex Inducer-Nitric Oxide Donor Conjugate as a Bifunctional Antibiofilm Agent and Antibacterial Synergist against Pseudomonas aeruginosa with a Hyperbiofilm Phenotype” (J Med Chem, 2023)
Calls of active or inactive are those of the source. No cut-off for these calls is given here.

Key:
Caenorhabditis elegans [1] = assay: Anti-infective activity against Caenorhabditis elegans assessed as survival rate at MBC level incubated for 24 hrs relative to control; assay type: functional
DNA = assay: Induction of pBR322 DNA (unknown origin) damage assessed as DNA embedding effect by measuring tail formation incubated for 10 mins by electrophoresis assay; assay type: toxicity
Pseudomonas aeruginosa [2] = assay: Synergistic antibacterial activity against Pseudomonas aeruginosa PAO1 delta wspF assessed as inhibition of reproduction of biofilm bacteria at 2X MBC in presence of streptozocin by checker board assay; assay type: functional, organism-based
Pseudomonas aeruginosa [3] = assay: Antibiofilm activity against Pseudomonas aeruginosa PAO1 delta wspF at 1.25 uM measured after 24 hrs by crystal violet staining based analysis; assay type: functional, organism-based
Quadruplex DNA = assay: Induction of c-diGMP G quadruplex formation at 30 uM incubated for 12 hrs by circular dichroism analysis; assay type: nucleic-acid assay
Pseudomonas aeruginosa [4] = assay: Antibacterial activity against Pseudomonas aeruginosa PAO1 delta wspF assessed as reduction in c-di-GMP induced EMP production at 1.25 uM incubated for 3 hrs by Congo red dye based spectrophotometric assay relative to control; assay type: functional; design: scale not given: the % may be the effect or the level left
Vero = assay: Cytotoxicity against African green monkey Vero cells at 0.156 to 20 uM measured after 24 hrs by MTT assay relative to control; assay type: toxicity, cell-based; details: chlorocebus sabaeus, dose 0.156-20 µM
Pseudomonas aeruginosa [5] = assay: Antibacterial activity against Pseudomonas aeruginosa PAO1 delta wspF assessed as inhibition of biofilm formation at 1.25 uM incubated for 24 hrs relative to control; assay type: functional; design: scale not given: the % may be the effect or the level left
Pseudomonas aeruginosa [6] = assay: Antibacterial activity against Pseudomonas aeruginosa PAO1 delta wspF assessed as eradication of preformed bacterial biofilm at 0.625 to 40 uM incubated for 15 hrs by crystal violet staining based analysis; assay type: functional, organism-based; details: dose 0.625-40 µM
Pseudomonas aeruginosa [7] = assay: Antibacterial activity against Pseudomonas aeruginosa PAO1 delta wspF assessed as reduction in c-di-GMP induced EMP production at 0.156 to 1.25 uM incubated for 3 hrs by Congo red dye based spectrophotometric assay; assay type: functional, organism-based; details: dose 0.156-1.25 µM
Pseudomonas aeruginosa [8] = assay: Synergistic antibacterial activity against Pseudomonas aeruginosa PAO1 delta wspF assessed as inhibition of reproduction of biofilm bacteria at upto 40 uM incubated for 15 hrs in presence of tobramycin by checker board assay; assay type: functional, organism-based
Pseudomonas aeruginosa [9] = assay: Anti-motility activity against Pseudomonas aeruginosa PAO1 delta wspF assessed as promotion of swarming motility measured after 24 hrs; assay type: functional, organism-based; details: dose 0.156-1.25 µM
Pseudomonas aeruginosa [10] = assay: Synergistic antibacterial activity against Pseudomonas aeruginosa PAO1 delta wspF assessed as inhibition of reproduction of biofilm bacteria at high concentration incubated for 15 hrs in presence of tobramycin by checker board assay; assay type: functional, organism-based
Pseudomonas aeruginosa [11] = assay: Antibiofilm activity against Pseudomonas aeruginosa PAO1 delta wspF assessed as increase in number of planktonic bacteria at 1.25 to 10 uM incubated for 2 hrs; assay type: functional, organism-based; details: dose 1.25-10 µM
Pseudomonas aeruginosa [12] = assay: Antibacterial activity against Pseudomonas aeruginosa PAO1 delta wspF assessed as eradication of preformed bacterial biofilm at 1.25 uM incubated for 15 hrs by crystal violet staining based analysis relative to control; assay type: functional
Pseudomonas aeruginosa [13] = assay: Synergistic antibacterial activity Pseudomonas aeruginosa PAO1 delta wspF assessed as fold reduction in survival of biofilm bacteria at 1.25 to 10 uM incubated for 15 hrs in presence of tobramycin by checker board assay; assay type: functional; details: dose 1.25-10 µM
[14] = Cytotoxicity against African green monkey Vero cells assessed as survival rate at 0.156 to 20 uM measured after 48 hrs by MTT assay relative to control; assay type: toxicity, cell-based; details: chlorocebus sabaeus, dose 0.156-20 µM, read-out: Survival
Caenorhabditis elegans [15] = assay: Synergistic anti-infective activity against Caenorhabditis elegans assessed as survival rate at 10 uM incubated for 24 hrs in presence of tobramycin relative to control; assay type: functional
Caenorhabditis elegans [16] = assay: Synergistic anti-infective activity against Caenorhabditis elegans assessed as survival rate at 0.16 to 20 uM incubated for 24 hrs in presence of tobramycin relative to control; assay type: functional; details: dose 0.16-20 µM
Pseudomonas aeruginosa [17] = assay: Antibacterial activity against Pseudomonas aeruginosa PAO1 delta wspF assessed as eradication of mature biofilm at 0.16 to 40 uM incubated for 15 hrs by crystal violet staining based analysis relative to control; assay type: functional; details: dose 0.16-40 µM

CN1/C(=C/c2cc[n+](C)c3ccccc23)Sc2ccccc21.Cc1ccc(S(=O)(=O)[O-])cc1
Activity (Caenorhabditis elegans [1]): 20% | Activity (DNA): Active | Activity (Pseudomonas aeruginosa [2]): Active

CCCNc1ccc(/C=C/c2sc3ccccc3[n+]2C)cc1
Activity (Pseudomonas aeruginosa [3]): Active | Activity (Quadruplex DNA): Active

CCNc1ccc(/C=C/c2sc3ccccc3[n+]2C)cc1
Activity (Pseudomonas aeruginosa [3]): Active | Activity (Quadruplex DNA): Active

CNc1ccc(/C=C/c2sc3ccccc3[n+]2C)cc1
Activity (Pseudomonas aeruginosa [3]): Active | Activity (Quadruplex DNA): Active

CNc1ccc(/C=C/c2sc3ccccc3[n+]2C)cc1OC.[I-]
Activity (Pseudomonas aeruginosa [4]): <50% | Activity (Vero): > 98% | Activity (Pseudomonas aeruginosa [3]): Active | Activity (Pseudomonas aeruginosa [5]): 60% | Activity (Quadruplex DNA): Active | Activity (Pseudomonas aeruginosa [6]): inactive | Activity (Pseudomonas aeruginosa [7]): Active | Activity (DNA): Not Active | Activity (Pseudomonas aeruginosa [8]): inactive | Activity (Pseudomonas aeruginosa [9]): Dose-Dependent Effect

COc1cc(/C=C/c2sc3ccccc3[n+]2C)ccc1N(C)N=O.[I-]
Activity (Pseudomonas aeruginosa [10]): Active | Activity (Pseudomonas aeruginosa [11]): Active | Activity (Pseudomonas aeruginosa [12]): 40% | fold change (FC) (Pseudomonas aeruginosa [13]): 1000 | Activity (Pseudomonas aeruginosa [5]): 80% | viability at 48 h, up to 20 µM [14]: 80% | Activity (Caenorhabditis elegans [15]): 60%

CCNc1ccc(/C=C/c2ccc3ccccc3[n+]2C)cc1
Activity (Pseudomonas aeruginosa [3]): Active | Activity (Quadruplex DNA): Active

CN(N=O)C(=O)N[C@@H](C=O)[C@@H](O)[C@H](O)[C@H](O)CO [STREPTOZOCIN]
Activity (Caenorhabditis elegans [16]): 25% | Activity (Pseudomonas aeruginosa [17]): 30%

CC(C)Nc1ccc(/C=C/c2sc3ccccc3[n+]2C)cc1
Activity (Pseudomonas aeruginosa [3]): Active | Activity (Quadruplex DNA): Active

CNc1ccc(/C=C/c2ccc3ccccc3[n+]2C)cc1
Activity (Pseudomonas aeruginosa [3]): Active | Activity (Quadruplex DNA): Active

CCCNc1ccc(/C=C/c2ccc3ccccc3[n+]2C)cc1
Activity (Pseudomonas aeruginosa [3]): Active | Activity (Quadruplex DNA): Active
